Laboratory results as given in patent US20100305098A1, “METHODS OF USE” (priority 2007, published 2010).

Tests used:
CHEMR23 = target: T1, CHEMR23 (Homo sapiens, UniProt Q99788); experiment: FLIPR functional screen; type: cell-based; details: antagonist mode
T1 construct: Millipore

D5 = target: T2, D5 (Homo sapiens, UniProt P21918); experiment: FLIPR functional screen; type: cell-based; details: antagonist mode
T2 construct: Millipore

VPAC1 = target: T3, VPAC1 (Homo sapiens, UniProt P32241); experiment: FLIPR functional screen; type: cell-based; details: antagonist mode
T3 construct: Millipore

DP = target: T4, DP (Homo sapiens, UniProt Q13258); experiment: FLIPR functional screen; type: cell-based; details: antagonist mode
T4 construct: Millipore

D2 = target: T5, D2 (Homo sapiens, UniProt P14416); experiment: FLIPR functional screen; type: cell-based; details: antagonist mode
T5 construct: Millipore

CXCR4 = target: T6, CXCR4 (Homo sapiens, UniProt P61073); experiment: FLIPR functional screen; type: cell-based; details: antagonist mode
T6 construct: Millipore

Y2 = target: T7, Y2 (Homo sapiens, UniProt P49146); experiment: FLIPR functional screen; type: cell-based; details: antagonist mode
T7 construct: Millipore

H2 = target: T8, H2 (Homo sapiens, UniProt P25021); experiment: FLIPR functional screen; type: cell-based; details: antagonist mode
T8 construct: Millipore

CCR10 = target: T9, CCR10 (Homo sapiens, UniProt P46092); experiment: FLIPR functional screen; type: cell-based; details: antagonist mode
T9 construct: Millipore

PTH1 = target: T10, PTH1 (Homo sapiens, UniProt Q03431); experiment: FLIPR functional screen; type: cell-based; details: antagonist mode
T10 construct: Millipore

CCR1 = target: T11, CCR1 (Homo sapiens, UniProt P32246); experiment: FLIPR functional screen; type: cell-based; details: antagonist mode
T11 construct: Millipore

RDKR2 = target: T12, RDKR2 (Homo sapiens, UniProt P30411); experiment: FLIPR functional screen; type: cell-based; details: antagonist mode
T12 construct: Millipore

CB1 = target: T13, CB1 (Homo sapiens, UniProt P21554); experiment: FLIPR functional screen; type: cell-based; details: antagonist mode
T13 construct: Millipore

S1P5 = target: T14, S1P5 (Homo sapiens, UniProt Q9H228); experiment: FLIPR functional screen; type: cell-based; details: antagonist mode
T14 construct: Millipore

GAL2 = target: T15, GAL2 (Homo sapiens, UniProt O43603); experiment: FLIPR functional screen; type: cell-based; details: antagonist mode
T15 construct: Millipore

EP4 = target: T16, EP4 (Homo sapiens, UniProt P35408); experiment: PGE2 induced CRE-PLAP reporter assay in SE302 cells; type: cell-based; details: read-out: IC50 against PGE2 induced CRE-PLAP reporter activity
T16 construct: SE302 cells that express endogenous EP4; endogenous in cells; host or cells: SE302 cells
Method: CRE-PLAP reporter assay. SE302 cells that express endogenous EP4 were stimulated with PGE2 in the presence or absence of ER-819762 for overnight, and PLAP activity was measured.

CRF2 = target: T17, CRF2 (Homo sapiens, UniProt Q13324); experiment: FLIPR functional screen; type: cell-based; details: antagonist mode
T17 construct: Millipore

GPR41 = target: T18, GPR41 (Homo sapiens, UniProt O14843); experiment: FLIPR functional screen; type: cell-based; details: antagonist mode
T18 construct: Millipore

S1P4 = target: T19, S1P4 (Homo sapiens, UniProt O95977); experiment: FLIPR functional screen; type: cell-based; details: antagonist mode
T19 construct: Millipore

GNRHR = target: T20, GNRHR (Homo sapiens, UniProt P30968); experiment: FLIPR functional screen; type: cell-based; details: antagonist mode
T20 construct: Millipore

MC2 = target: T21, MC2 (Homo sapiens, UniProt Q01718); experiment: FLIPR functional screen; type: cell-based; details: antagonist mode
T21 construct: Millipore

BB3 = target: T22, BB3 (Homo sapiens, UniProt P32247); experiment: FLIPR functional screen; type: cell-based; details: antagonist mode
T22 construct: Millipore

CRF1 = target: T23, CRF1 (Homo sapiens, UniProt P34998); experiment: FLIPR functional screen; type: cell-based; details: antagonist mode
T23 construct: Millipore

FP = target: T24, FP (Homo sapiens, UniProt P43088); experiment: FLIPR functional screen; type: cell-based; details: antagonist mode
T24 construct: Millipore

CRTH2 = target: T25, CRTH2 (Homo sapiens, UniProt Q9Y5Y4); experiment: FLIPR functional screen; type: cell-based; details: antagonist mode
T25 construct: Millipore

CCK2 = target: T26, CCK2 (Homo sapiens, UniProt P32239); experiment: FLIPR functional screen; type: cell-based; details: antagonist mode
T26 construct: Millipore

P2Y1 = target: T27, P2Y1 (Homo sapiens, UniProt P47900); experiment: FLIPR functional screen; type: cell-based; details: antagonist mode
T27 construct: Millipore

NK1 = target: T28, NK1 (Homo sapiens, UniProt P25103); experiment: FLIPR functional screen; type: cell-based; details: antagonist mode
T28 construct: Millipore

CGRP1 = target: T29, CGRP1 (Homo sapiens, UniProt O60894+Q16602); experiment: FLIPR functional screen; type: cell-based; details: antagonist mode
T29 construct: Millipore

M2 = target: T30, M2 (Homo sapiens, UniProt P08172); experiment: FLIPR functional screen; type: cell-based; details: antagonist mode
T30 construct: Millipore

C3AR = target: T31, C3AR (Homo sapiens, UniProt Q16581); experiment: FLIPR functional screen; type: cell-based; details: antagonist mode
T31 construct: Millipore

SST3 = target: T32, SST3 (Homo sapiens, UniProt P32745); experiment: FLIPR functional screen; type: cell-based; details: antagonist mode
T32 construct: Millipore

NMU1 = target: T33, NMU1 (Homo sapiens, UniProt Q9HB89); experiment: FLIPR functional screen; type: cell-based; details: antagonist mode
T33 construct: Millipore

ADRB2 = target: T34, ADRB2 (Homo sapiens, UniProt P07550); experiment: FLIPR functional screen; type: cell-based; details: antagonist mode
T34 construct: purchased Millipore (outsourced screen)

EP3 = target: T35, EP3 (Homo sapiens, UniProt P43115); experiment: FLIPR functional screen; type: cell-based; details: antagonist mode
T35 construct: Millipore

A1 = target: T36, A1 (Homo sapiens, UniProt P30542); experiment: FLIPR functional screen; type: cell-based; details: antagonist mode
T36 construct: purchased Millipore (outsourced screen)

Prostanoid CRTH2 = target: T37, Prostanoid CRTH2 (Homo sapiens, UniProt Q9Y5Y4); experiment: Competitive radioligand binding (MDS Pharma)
T37 construct: purchased MDS Pharma (outsourced assay)

PAF = target: T38, PAF (Homo sapiens, UniProt P25105); experiment: FLIPR functional screen; type: cell-based; details: antagonist mode
T38 construct: Millipore

Prostanoid EP2 = target: T39, Prostanoid EP2 (Homo sapiens, UniProt P43116); experiment: Competitive radioligand binding (MDS Pharma)
T39 construct: purchased MDS Pharma (outsourced assay)
T39 sequence (P43116 whole entry): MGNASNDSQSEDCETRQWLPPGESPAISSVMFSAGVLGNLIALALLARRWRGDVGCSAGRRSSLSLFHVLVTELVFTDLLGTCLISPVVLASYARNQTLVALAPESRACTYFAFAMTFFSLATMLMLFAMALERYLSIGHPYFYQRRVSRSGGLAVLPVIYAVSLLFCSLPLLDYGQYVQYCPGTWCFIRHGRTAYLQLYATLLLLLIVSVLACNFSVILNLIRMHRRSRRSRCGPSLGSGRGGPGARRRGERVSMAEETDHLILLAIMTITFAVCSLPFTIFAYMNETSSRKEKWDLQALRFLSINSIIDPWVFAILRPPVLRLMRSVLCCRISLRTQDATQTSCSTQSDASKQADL

T37 sequence (Q9Y5Y4 whole entry): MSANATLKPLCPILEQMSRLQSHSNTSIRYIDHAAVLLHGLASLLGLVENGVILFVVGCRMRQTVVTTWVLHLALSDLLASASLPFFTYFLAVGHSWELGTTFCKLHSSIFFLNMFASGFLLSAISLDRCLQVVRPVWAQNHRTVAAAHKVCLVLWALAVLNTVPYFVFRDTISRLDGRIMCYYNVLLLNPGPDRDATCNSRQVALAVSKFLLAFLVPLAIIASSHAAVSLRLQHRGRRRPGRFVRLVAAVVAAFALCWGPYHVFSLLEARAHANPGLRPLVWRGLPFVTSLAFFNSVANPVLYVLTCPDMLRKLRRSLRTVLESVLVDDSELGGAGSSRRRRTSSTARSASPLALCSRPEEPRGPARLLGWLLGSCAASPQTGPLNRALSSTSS
T31 sequence (Q16581 whole entry, species assumed): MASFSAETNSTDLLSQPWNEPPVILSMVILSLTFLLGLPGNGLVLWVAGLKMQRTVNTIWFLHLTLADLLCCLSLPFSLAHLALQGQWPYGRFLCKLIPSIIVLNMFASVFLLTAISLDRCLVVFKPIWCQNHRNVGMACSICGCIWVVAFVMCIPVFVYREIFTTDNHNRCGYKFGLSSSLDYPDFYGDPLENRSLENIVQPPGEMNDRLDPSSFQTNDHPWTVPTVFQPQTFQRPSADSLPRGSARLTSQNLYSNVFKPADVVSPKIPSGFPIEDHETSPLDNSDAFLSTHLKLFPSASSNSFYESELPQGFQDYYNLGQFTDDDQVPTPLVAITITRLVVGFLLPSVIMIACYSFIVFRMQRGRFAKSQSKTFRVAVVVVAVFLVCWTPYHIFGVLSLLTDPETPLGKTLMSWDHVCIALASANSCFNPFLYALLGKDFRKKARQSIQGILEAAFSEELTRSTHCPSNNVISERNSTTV
T25 sequence (Q9Y5Y4 whole entry, species assumed): as the sequence (Q9Y5Y4 whole entry) above
T13 sequence (P21554 whole entry, species assumed): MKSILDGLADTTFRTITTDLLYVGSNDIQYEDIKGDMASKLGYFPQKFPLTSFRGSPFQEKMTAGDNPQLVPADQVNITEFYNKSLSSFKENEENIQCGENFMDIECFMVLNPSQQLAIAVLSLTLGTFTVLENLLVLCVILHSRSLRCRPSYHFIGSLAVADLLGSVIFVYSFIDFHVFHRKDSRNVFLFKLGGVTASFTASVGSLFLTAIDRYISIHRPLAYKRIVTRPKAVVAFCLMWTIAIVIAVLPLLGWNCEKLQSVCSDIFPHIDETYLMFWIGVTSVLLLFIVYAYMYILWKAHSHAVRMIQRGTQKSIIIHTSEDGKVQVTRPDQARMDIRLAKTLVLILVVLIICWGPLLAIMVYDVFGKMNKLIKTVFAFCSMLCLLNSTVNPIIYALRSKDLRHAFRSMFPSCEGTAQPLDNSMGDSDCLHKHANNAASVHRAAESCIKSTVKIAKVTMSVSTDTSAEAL
T23 sequence (P34998 24-415): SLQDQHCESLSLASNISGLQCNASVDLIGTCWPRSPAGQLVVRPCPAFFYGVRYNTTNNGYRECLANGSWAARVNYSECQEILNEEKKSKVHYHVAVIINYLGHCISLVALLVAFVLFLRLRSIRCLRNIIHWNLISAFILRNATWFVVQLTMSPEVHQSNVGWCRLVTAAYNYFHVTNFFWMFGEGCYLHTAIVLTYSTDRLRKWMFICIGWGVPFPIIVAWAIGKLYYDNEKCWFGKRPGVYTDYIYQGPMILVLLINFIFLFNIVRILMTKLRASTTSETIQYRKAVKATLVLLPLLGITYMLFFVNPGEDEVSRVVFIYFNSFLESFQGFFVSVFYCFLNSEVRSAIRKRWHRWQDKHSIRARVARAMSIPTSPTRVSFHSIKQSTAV
T4 sequence (Q13258 whole entry): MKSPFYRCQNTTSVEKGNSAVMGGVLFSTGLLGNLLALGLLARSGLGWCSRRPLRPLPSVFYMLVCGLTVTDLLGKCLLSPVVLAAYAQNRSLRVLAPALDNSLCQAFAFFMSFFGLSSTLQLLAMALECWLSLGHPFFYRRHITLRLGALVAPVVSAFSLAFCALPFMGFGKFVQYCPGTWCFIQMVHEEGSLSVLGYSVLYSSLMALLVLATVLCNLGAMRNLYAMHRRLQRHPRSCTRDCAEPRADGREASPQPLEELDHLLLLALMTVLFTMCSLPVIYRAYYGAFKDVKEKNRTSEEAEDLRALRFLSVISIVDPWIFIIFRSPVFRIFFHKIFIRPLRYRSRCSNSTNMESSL
T27 sequence (P47900 whole entry, species assumed): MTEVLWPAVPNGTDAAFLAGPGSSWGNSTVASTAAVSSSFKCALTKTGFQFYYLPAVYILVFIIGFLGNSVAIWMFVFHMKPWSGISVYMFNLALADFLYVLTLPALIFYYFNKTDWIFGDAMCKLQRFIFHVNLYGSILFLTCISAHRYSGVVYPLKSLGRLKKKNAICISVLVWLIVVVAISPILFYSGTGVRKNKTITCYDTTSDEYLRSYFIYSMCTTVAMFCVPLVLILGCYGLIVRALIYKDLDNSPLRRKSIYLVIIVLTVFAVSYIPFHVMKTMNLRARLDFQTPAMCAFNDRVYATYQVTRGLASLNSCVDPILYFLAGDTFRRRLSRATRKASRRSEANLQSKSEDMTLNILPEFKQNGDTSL
T38 sequence (P25105 whole entry): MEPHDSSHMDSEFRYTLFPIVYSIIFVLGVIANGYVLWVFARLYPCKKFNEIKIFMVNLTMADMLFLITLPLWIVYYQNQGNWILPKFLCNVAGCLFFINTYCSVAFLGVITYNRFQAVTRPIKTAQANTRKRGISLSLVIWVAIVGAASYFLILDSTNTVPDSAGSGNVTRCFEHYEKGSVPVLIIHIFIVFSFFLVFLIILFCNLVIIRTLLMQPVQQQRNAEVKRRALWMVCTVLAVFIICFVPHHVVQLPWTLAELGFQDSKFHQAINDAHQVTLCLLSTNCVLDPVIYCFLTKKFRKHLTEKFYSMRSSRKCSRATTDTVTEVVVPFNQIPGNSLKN
T24 sequence (P43088 whole entry): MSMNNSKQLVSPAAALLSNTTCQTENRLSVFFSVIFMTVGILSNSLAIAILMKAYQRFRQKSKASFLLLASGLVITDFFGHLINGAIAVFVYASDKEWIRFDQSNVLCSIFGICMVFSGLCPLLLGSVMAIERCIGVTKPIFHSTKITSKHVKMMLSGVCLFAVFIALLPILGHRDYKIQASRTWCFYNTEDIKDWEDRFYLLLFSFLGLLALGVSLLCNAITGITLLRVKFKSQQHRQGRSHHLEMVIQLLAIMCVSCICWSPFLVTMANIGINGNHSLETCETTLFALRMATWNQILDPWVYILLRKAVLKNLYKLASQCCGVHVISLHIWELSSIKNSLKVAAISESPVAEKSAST
T9 sequence (P46092 whole entry): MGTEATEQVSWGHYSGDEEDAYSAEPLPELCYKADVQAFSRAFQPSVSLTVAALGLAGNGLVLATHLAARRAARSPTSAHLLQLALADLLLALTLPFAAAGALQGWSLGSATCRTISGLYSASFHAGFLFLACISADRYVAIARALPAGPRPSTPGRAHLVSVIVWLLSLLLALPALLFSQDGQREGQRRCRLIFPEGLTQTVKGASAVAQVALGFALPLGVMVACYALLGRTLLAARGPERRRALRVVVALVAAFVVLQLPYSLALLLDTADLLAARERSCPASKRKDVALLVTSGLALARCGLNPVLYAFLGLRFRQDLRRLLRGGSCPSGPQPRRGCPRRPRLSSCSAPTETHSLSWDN
T22 sequence (P32247 whole entry): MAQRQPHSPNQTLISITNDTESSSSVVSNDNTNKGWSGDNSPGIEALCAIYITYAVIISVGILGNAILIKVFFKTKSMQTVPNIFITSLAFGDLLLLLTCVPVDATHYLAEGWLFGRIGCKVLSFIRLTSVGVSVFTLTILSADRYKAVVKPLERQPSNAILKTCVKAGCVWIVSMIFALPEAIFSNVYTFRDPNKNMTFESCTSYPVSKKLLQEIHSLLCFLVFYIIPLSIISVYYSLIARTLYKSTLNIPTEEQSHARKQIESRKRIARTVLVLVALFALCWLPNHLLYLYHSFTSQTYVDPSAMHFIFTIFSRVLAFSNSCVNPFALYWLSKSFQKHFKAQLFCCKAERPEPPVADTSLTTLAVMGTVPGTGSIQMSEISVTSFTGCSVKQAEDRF
T32 sequence (P32745 whole entry, species assumed): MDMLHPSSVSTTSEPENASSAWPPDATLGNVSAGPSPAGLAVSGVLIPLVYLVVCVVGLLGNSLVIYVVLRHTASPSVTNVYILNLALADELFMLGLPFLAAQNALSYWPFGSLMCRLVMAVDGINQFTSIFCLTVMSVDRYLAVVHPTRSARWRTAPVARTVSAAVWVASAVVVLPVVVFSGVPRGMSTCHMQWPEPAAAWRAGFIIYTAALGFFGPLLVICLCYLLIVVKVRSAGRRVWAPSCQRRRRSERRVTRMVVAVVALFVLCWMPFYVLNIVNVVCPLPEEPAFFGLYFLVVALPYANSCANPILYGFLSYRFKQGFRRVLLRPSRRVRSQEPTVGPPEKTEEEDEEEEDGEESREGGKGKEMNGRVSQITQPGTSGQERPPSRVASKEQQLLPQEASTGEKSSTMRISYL

Q: For `CCN1C(=O)N2Cc3cc(OC)cc(OC)c3[C@@H](C)C=C2C12CCN(Cc1cccn1C)CC2` [ER-819924-01], which inhibition at 1 µM (CHEMR23) is on record?
A: Its inhibition at 1 µM is -3.2%.

Q: What about the inhibition at 1 µM (D5) of the same compound?
A: The inhibition at 1 µM was 34.7%.

Q: And the inhibition at 1 µM (VPAC1)?
A: The inhibition at 1 µM was 4.6%.

Q: And the inhibition at 1 µM (DP)?
A: The inhibition at 1 µM was -5.8%.

Q: What about the inhibition at 1 µM (D2) of the same compound?
A: Its inhibition at 1 µM is -4.6%.

Q: What about the inhibition at 1 µM (CXCR4) of the same compound?
A: The inhibition at 1 µM was -11.8%.

Q: What about the inhibition at 1 µM (Y2) of the same compound?
A: Its inhibition at 1 µM is -1%.

Q: And the inhibition at 1 µM (H2)?
A: The inhibition at 1 µM was 1.8%.

Q: What about the inhibition at 1 µM (CCR10) of the same compound?
A: Its inhibition at 1 µM is 2.2%.

Q: What about the inhibition at 1 µM (PTH1) of the same compound?
A: Its inhibition at 1 µM is 3.9%.

Q: What about the inhibition at 1 µM (CCR1) of the same compound?
A: The inhibition at 1 µM was -8.2%.

Q: What about the inhibition at 1 µM (RDKR2) of the same compound?
A: The inhibition at 1 µM was 1.7%.

Q: And the inhibition at 1 µM (CB1)?
A: Its inhibition at 1 µM is 10.5%.

Q: And the inhibition at 1 µM (S1P5)?
A: The inhibition at 1 µM was -7.4%.

Q: What about the inhibition at 1 µM (GAL2) of the same compound?
A: Its inhibition at 1 µM is 8.1%.

Q: What about the IC50 (EP4) of the same compound?
A: Its IC50 is 0.028 µM.

Q: What about the inhibition at 1 µM (CRF2) of the same compound?
A: The inhibition at 1 µM was -7%.

Q: And the inhibition at 1 µM (GPR41)?
A: Its inhibition at 1 µM is -7.3%.

Q: And the inhibition at 1 µM (S1P4)?
A: Its inhibition at 1 µM is -6.6%.

Q: And the inhibition at 1 µM (GNRHR)?
A: Its inhibition at 1 µM is 35.8%.

Q: What about the inhibition at 1 µM (MC2) of the same compound?
A: The inhibition at 1 µM was -1%.

Q: And the inhibition at 1 µM (BB3)?
A: Its inhibition at 1 µM is 6.2%.

Q: What about the inhibition at 1 µM (CRF1) of the same compound?
A: Its inhibition at 1 µM is 3.9%.

Q: What about the inhibition at 1 µM (FP) of the same compound?
A: Its inhibition at 1 µM is 14%.

Q: What about the inhibition at 1 µM (CRTH2) of the same compound?
A: The inhibition at 1 µM was 4.1%.

Q: What about the inhibition at 1 µM (CCK2) of the same compound?
A: Its inhibition at 1 µM is -0.4%.

Q: And the inhibition at 1 µM (P2Y1)?
A: Its inhibition at 1 µM is -37.5%.

Q: What about the inhibition at 1 µM (NK1) of the same compound?
A: The inhibition at 1 µM was 2.9%.

Q: What about the inhibition at 1 µM (CGRP1) of the same compound?
A: Its inhibition at 1 µM is -5.6%.

Q: What about the inhibition at 1 µM (M2) of the same compound?
A: Its inhibition at 1 µM is 1.5%.

Q: What about the inhibition at 1 µM (C3AR) of the same compound?
A: Its inhibition at 1 µM is -8.2%.

Q: What about the inhibition at 1 µM (SST3) of the same compound?
A: Its inhibition at 1 µM is -19.7%.

Q: What about the inhibition at 1 µM (NMU1) of the same compound?
A: Its inhibition at 1 µM is -14%.

Q: What about the inhibition at 1 µM (ADRB2) of the same compound?
A: The inhibition at 1 µM was -2.3%.

Q: And the inhibition at 1 µM (EP3)?
A: The inhibition at 1 µM was 7.8%.

Q: What about the inhibition at 1 µM (A1) of the same compound?
A: Its inhibition at 1 µM is 2.2%.

Q: What about the “% INHIBITION” value (Prostanoid CRTH2; CONC. 0.1 μm) of the same compound?
A: The value was 8%.

Q: What about the “% INHIBITION” value (Prostanoid CRTH2; CONC. 1 μm) of the same compound?
A: The value was −5%.

Q: What about the inhibition at 1 µM (PAF) of the same compound?
A: The inhibition at 1 µM was 5.4%.

Q: What about the “% INHIBITION” value (Prostanoid EP2; CONC. 0.1 μm) of the same compound?
A: Its value is −3%.

Q: And the “% INHIBITION” value (Prostanoid EP2; CONC. 1 μm)?
A: Its value is 1%.
